Test results from patent US20030144346A1, “Methods and compositions for regulation of 5-alpha reductase activity” (priority 1997, published 2003).
pIC50: −log10 of the molar value.

How the values were obtained:
[1] = molecular target: T1, type 2 human 5α-reductase (HRED2) (Homo sapiens, UniProt P31213); assay: Cell free assay of 5α-reductase, microsomes of rat 1A cells expressing type 2 isoenzyme (HRED2); type: biochemical; design: expressed in transfected cells; host or cells: rat 1A cells infected with pMV7 retrovirus; microsomes;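 also: labeled testosterone and its product dihydrotestosterone measured in microsomal reaction extracts via thin layer chromatography plus radioanalytic scanning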
T1 sequence (P31213 1-254): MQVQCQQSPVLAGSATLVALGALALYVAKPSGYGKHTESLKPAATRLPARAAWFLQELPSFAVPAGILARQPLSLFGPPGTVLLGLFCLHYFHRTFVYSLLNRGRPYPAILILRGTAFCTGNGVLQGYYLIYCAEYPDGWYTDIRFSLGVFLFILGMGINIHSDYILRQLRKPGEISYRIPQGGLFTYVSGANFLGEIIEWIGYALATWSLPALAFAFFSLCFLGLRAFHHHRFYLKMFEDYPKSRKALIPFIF

[2] = molecular target: T2, type 1 human 5α-reductase (HRED1) (Homo sapiens, UniProt P18405); assay: Whole cell assay of 5α-reductase, type 1 isoenzyme; type: cell-based; design: expressed in transfected cells; host or cells: rat 1A cells infected with pMV7 retrovirus;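 also: intact rat 1A cells engineered to express the human type 1 5α-reductase isozyme serve as the enzyme source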
T2 sequence (P18405 1-259): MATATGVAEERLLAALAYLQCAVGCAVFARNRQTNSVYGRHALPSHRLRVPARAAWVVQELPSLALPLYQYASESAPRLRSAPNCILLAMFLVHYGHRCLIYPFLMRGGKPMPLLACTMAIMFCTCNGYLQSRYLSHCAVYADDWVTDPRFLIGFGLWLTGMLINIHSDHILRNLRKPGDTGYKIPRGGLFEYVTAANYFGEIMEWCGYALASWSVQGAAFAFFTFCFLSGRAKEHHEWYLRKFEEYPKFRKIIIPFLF

[3] = molecular target: T1, type 2 human 5α-reductase (HRED2); assay: Whole cell assay of 5α-reductase, type 2 isoenzyme; type: cell-based; design: expressed in transfected cells; host or cells: rat 1A cells infected with pMV7 retrovirus; conditions: for inhibition at 100 µM / HRED2 % Inhibition @ 100 μM: Table 7; for pIC50: Table 7, read-out: HCRED2 IC50;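 as to all read-outs here: intact rat 1A cells genetically modified to carry human type 2 5α-reductase served as the enzyme source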
[4] = molecular target: T2, type 1 human 5α-reductase (HRED1); assay: Cell free assay of 5α-reductase, microsomes of rat 1A cells expressing type 1 isoenzyme (HRED1); type: biochemical; design: expressed in transfected cells; host or cells: rat 1A cells infected with pMV7 retrovirus; microsomes;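 also: microsomes from rat 1A cells expressing human type 1 5α-reductase, conversion of radiolabeled testosterone to dihydrotestosterone quantified by thin layer chromatography with radioanalytic scanning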
[5] = whole cell assay, Table 7, read-out: HCRED1 IC50
[6] = read-out: HRED2 % Inhibition @ 100 μM
[7] = read-out: HRED1 % Inhibition @ 100 μM
[8] = read-out: HRED2 % Inhibition @ 100 uM
[9] = read-out: HRED1 % Inhibition @ 100 uM
[10] = 100 uM, cell free assay, Table 1
[11] = cell free assay, Table 2 catechols, read-out: HRED2 IC50
[12] = cell free assay, Table 2 catechols, read-out: HRED1 IC50

`CCCCCC#CCC#CCC#CCC#CCCCC(=O)O` [5,8,11,14-Eocpsatetraynoic Acid, 5,8,11,14-eicosatetraynoic acid] was tested, and the inhibition at 100 µM ([1]; 100 μM, cell free assay, Table 6, read-out: HRED2 % Inhibition @ 100 μM) was 81%, the pIC50 ([1]; cell-free assay, read-out: IC50, type 2 isoenzyme) was 5.52 and the inhibition at 100 µM ([2]; whole cell assay, Table 7) was 67%. It also gave a pIC50 [2, 5] of 4.66, an inhibition at 100 µM [3] of 86% and a pIC50 [3] of 5.70. The inhibition at 100 µM ([4]; 100 μM, cell free assay, Table 6, read-out: HRED1 % Inhibition @ 100 μM) was 97% and the pIC50 ([4]; cell-free assay, read-out: IC50, type 1 isoenzyme) was 4.82.

For `O=C1c2ccccc2C(=O)c2c1cc(S(=O)(=O)[O-])c(O)c2O.[Na+]` [Alizarin Red 5, Alizarin Red S], the pIC50 ([1]; cell free assay, Table 4 quinones, read-out: HRED2 IC50) was under 4.00, the “HRED1 % Inhibition @ 100 μM” value ([2]; whole cell assay, Table 7) was 28% and the pIC50 [3] was under 4.00.

For `O=C1c2ccccc2C(=O)c2c1ccc(O)c2O` [Alizarin], the inhibition at 100 µM [1, 6] was 54%, the inhibition at 100 µM ([2]; whole cell assay, Table 7) was 75% and the “inhibitory activity in the whole cell assay, type 1 isoenzyme, in words” value ([2]; whole cell assay) was “very effective inhibitor”. The pIC50 [2, 5] was 5.22, the inhibition at 100 µM [3] was 27% and the pIC50 [3] was under 4.00. For the same compound, the pIC50 ([4]; cell free assay, Table 4 quinones, read-out: HRED1 IC50) was 5.52, the “inhibitory activity against type 1 isoenzyme, in words” value ([4]; cell-free assay) was “very effective inhibitor” and the inhibition at 100 µM [4, 7] was 95%.

For `CC/C=C\C/C=C\C/C=C\CCCCCCCC(=O)OC` [Alpha-Linolenic Acid Me Ester], the “HRED1 % Inhibition @ 100 μM” value ([2]; whole cell assay, Table 7) was 24%, the pIC50 [2, 5] was under 4.00 and the “HRED2 % Inhibition @ 100 μM” value [3] was 18%. It also gave a pIC50 [3] of under 4.00.

In the case of `Oc1ccc2c(O)c3ccccc3cc2c1O` [Anthrarobin], the pIC50 [1] was 4.30, the inhibition at 100 µM [1, 8] was 97% and the inhibition at 100 µM [1, 6] was 97%. The pIC50 ([1]; read-out: HRED2 IC50, cell free assay, Table 4 quinones) was 4.30, the pIC50 [2] was 5.22 and the inhibition at 100 µM ([2]; whole cell assay, Table 7) was 91%. For the same compound, the “inhibitory activity in the whole cell assay, type 1 isoenzyme, in words” value ([2]; whole cell assay) was “active”, the inhibition at 100 µM [3] was 31% and the pIC50 [3] was under 4.00. It also gave a pIC50 [4] of 5.40, an inhibition at 100 µM [4, 9] of 99% and an inhibition at 100 µM [4, 7] of 99%. It also gave a pIC50 ([4]; read-out: HRED1 IC50, cell free assay, Table 4 quinones) of 5.40.

With `COc1ccc(-c2coc3cc(O)cc(O)c3c2=O)cc1` [Biochanin a] the “HRED2 % Inhibition @ 100 uM” value [1, 10] was 74%, the pIC50 ([1]; cell free assay, Table 1 flavanoids, read-out: HRED2 IC50) was 4.77 and the “inhibitory activity against type 2 isoenzyme, in words” value ([1]; cell-free assay) was “effective inhibitors”. For the same compound, the “HRED1 % Inhibition @ 100 μM” value ([2]; whole cell assay, Table 7) was 64%, the pIC50 [2, 5] was 4.19 and the “inhibitory activity in the whole cell assay, type 2 isoenzyme, in words” value [3] was “significant inhibitory activity”. The “HRED2 % Inhibition @ 100 μM” value [3] was 93%, the pIC50 [3] was 5.30 and the “HRED1 % Inhibition @ 100 uM” value [4, 10] was 50%. For the same compound, the pIC50 ([4]; cell free assay, Table 1 flavanoids, read-out: HRED1 IC50) was under 4.00.

With `O=C(/C=C/c1ccc(O)c(O)c1)OCCc1ccccc1` [Caffeic Acid Phenethyl Ester] the pIC50 [1, 11] was under 4.00, the “inhibitory activity in the whole cell assay, type 1 isoenzyme, in words” value ([2]; whole cell assay) was “active” and the pIC50 [2, 5] was 5.10. It also gave a pIC50 [3] of 5.15 and a pIC50 [4, 12] of 4.59.

Compound `Oc1ccccc1O` [Catechol] has a pIC50 [1, 11] of under 4.00, an inhibition at 100 µM [1, 8] of 0% and an inhibition at 100 µM ([2]; whole cell assay, Table 7) of 9%. The pIC50 [2, 5] was under 4.00, the inhibition at 100 µM [3] was 3% and the pIC50 [3] was under 4.00. For the same compound, the pIC50 [4, 12] was under 4.00 and the inhibition at 100 µM [4, 9] was 5%.

With `COc1cc(/C=C/C(=O)CC(=O)/C=C/c2ccc(O)c(OC)c2)ccc1O` [Curcumin] the “inhibitory activity against type 2 isoenzyme, in words” value ([1]; cell-free assay) was “very effective inhibitor”, the inhibition at 100 µM [1, 8] was 87% and the inhibition at 100 µM ([2]; whole cell assay, Table 7) was 99%. The inhibition at 100 µM ([4]; 100 uM, cell free assay, Table 3, read-out: HRED1 % Inhibition @ 100 uM) was 95% and the “inhibitory activity against type 1 isoenzyme, in words” value ([4]; cell-free assay) was “very effective inhibitor”.

For `O=c1c(-c2ccc(O)cc2)coc2cc(O)ccc12` [Daidzein], the “inhibitory activity against type 2 isoenzyme, in words” value ([1]; cell-free assay) was “effective inhibitors”, the “HRED1 % Inhibition @ 100 μM” value ([2]; whole cell assay, Table 7) was 9% and the “inhibitory activity in the whole cell assay, type 2 isoenzyme, in words” value [3] was “significant inhibitory activity”.

For `CCCCCCCCCCCCOC(=O)c1cc(O)c(O)c(O)c1` [Dodecylgallate], the inhibition at 100 µM ([1]; 100 uM, cell free assay, Table 2, read-out: HRED2 % Inhibition @ 100 uM) was 36%, the pIC50 [1, 11] was under 4.00 and the inhibition at 100 µM ([2]; whole cell assay, Table 7) was 99%. The “inhibitory activity in the whole cell assay, type 1 isoenzyme, in words” value ([2]; whole cell assay) was “active”, the pIC50 [2, 5] was 5.52 and the inhibition at 100 µM [3] was 98%. For the same compound, the pIC50 [3] was 5.15, the inhibition at 100 µM ([4]; 100 uM, cell free assay, Table 2, read-out: HRED1 % Inhibition @ 100 uM) was 88% and the pIC50 [4, 12] was 4.37.
